Data taken from US12285460B2, “Pharmaceutical compositions” (RHYTHM PHARMACEUTICALS, INC., priority 2013, dated 2025).
Bridge positions count the residues as written; N and C are the ends. Square brackets hold non-standard residues; d marks the D form. Peptide text beside a SMILES is read from it. dPhe(4-F) = N[C@H](Cc1ccc(F)cc1)C(=O)O; Pen = CC(C)(S)[C@H](N)C(=O)O; hCys = N[C@@H](CCS)C(=O)O

What was measured:
Type in all cases: cell-based
MC3R = biological target: T1, MC3R (Homo sapiens, UniProt P41968); test: cAMP assay (EC50), MC3R; settings: EC50(MC3R)/EC50(MC4R)
T1 construct: host or cells: CHO-K1 (ECL assay)
T1 sequence (P41968 whole entry): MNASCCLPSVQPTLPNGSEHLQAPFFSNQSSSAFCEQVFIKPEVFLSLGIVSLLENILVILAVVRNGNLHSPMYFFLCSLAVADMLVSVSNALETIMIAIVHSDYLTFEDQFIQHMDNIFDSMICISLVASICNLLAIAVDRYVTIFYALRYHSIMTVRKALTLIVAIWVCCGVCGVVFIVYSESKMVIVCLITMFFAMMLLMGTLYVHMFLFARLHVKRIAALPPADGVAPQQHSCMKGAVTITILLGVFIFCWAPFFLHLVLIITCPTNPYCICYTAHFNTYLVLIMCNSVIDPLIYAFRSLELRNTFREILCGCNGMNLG
Procedure: (§1) Stimulation of intracellular cyclic AMP (cAMP) levels by the peptides is determined in a dose dependent manner by an electrochemiluminescence (ECL) assay (Meso Scale Discovery, Gaithersburg, MD, USA; referred to hereinafter as “MSD”). Briefly, the CHO-K1 cells stably expressing the hMC receptor subtypes are suspended in RMPI 1640® assay buffer (RMPI 1640 buffer contains 0.5 mM IBMX, and 0.2% protein cocktail (MSD blocker A)). About 7,000 cells/well of the transgenic CHO-K1 cells stably expressing hMC receptor subtypes 1, 3, 4 or 5 are dispensed in 384-well Multi-Array plates (MSD) containing integrated carbon electrodes and coated with anti-cAMP antibody. Increasing concentrations of the test compounds are added and the cells are incubated for approximately 40 minutes at 37° C. A cell lysis buffer (HEPES-buffered saline solution with MgCl2 and Triton X-100® at pH 7.3) containing 0.2% protein cocktail and 2.5 nM TAG™ ruthenium-labeled cAMP (MSD) is added and the cells are incubated for approximately 90 minutes at room temperature. At the end of the second incubation period, the read buffer (Tris-buffered solution containing an ECL co-reactant and Triton X-100 at pH 7.8) is added and the cAMP levels in the cell lysates are immediately determined by ECL detection with a Sector Imager 6000 Reader® (MSD). Data are analyzed using a computer-assisted non-linear regression analysis (XL fit; IDBS) and reported as either an EC50 value.
(§2) Human MC4-R transfected cells are grown to confluence in 96 well plates (plating approximately 250,000 cells per well). The cells are treated in triplicate sets with 0.2 mM isobutylmethylxanthine (IBMX) and graded concentrations of the peptide or alternatively the peptide in the presence of 20 nM NDP-MSH. Cells similarly treated but with only 20 nM NDP-MSH serve as positive controls in a volume of 200 μL. A buffer blank serving as a negative control is also included. After incubation of one hour at 37° C., the cells are lysed by the addition of 50 μL of a cell lysis buffer. Total cAMP accumulated in 250 μL of this incubation medium is quantitated using a commercially available low pH cAMP assay kit (Amersham BioSciences) as per procedure specified by the kit supplier. […] The data for agonist is plotted and curve fitted to determine the EC50 value. A peptide showing accumulation in the same range as the negative control (buffer blank in the absence of alpha-MSH) is ineffective at the test concentration. A peptide showing attenuated accumulation is considered to be an antagonist if there is inhibition in cAMP when alpha-MSH is also present in the assay. Similar assay can be performed with hMC-1R, hMC-3R, and hMC-5R cells.
(§3) A chemiluminescence readout system that uses an enzyme fragment complementation (EFC) system with β-galactosidase (β-Gal) as the functional reporter system was used. This assay system for various melanocortin receptor systems is commercially available (cAMP Hunter GPCR assay system, Discoverx Corp, Fremont, CA). This assay utilizes the β-Gal enzyme that is split into two complementary portions; EA for Enzyme Acceptor and ED for Enzyme Donor. In the assay, the ED portion fused to cAMP is made to compete with cAMP generated by cells for binding to a cAMP-specific antibody. The EA is then added to form active β-Gal with any unbound ED-cAMP.
(§4) Briefly, 10000 cells per well are plated overnight and each well (cells incubated with 10 μl assay buffer) is then incubated with 4× serial concentration of the test compound in the cell assay buffer (5 μL) and cAMP antibody reagent (5 μL) for 30 min at 37° C. The cell lysis buffer (20 μL) containing ED-cAMP coupled enzyme fragment and the reporter substrate (Emerald II-Galacton Star, 5:1) is then added and incubated for 60 min at room temperature. Next, 20 μL of EA β-Gal fragment reagent is added.

MC1R = biological target: T2, MC1R (Homo sapiens, UniProt Q01726); test: cAMP assay (EC50), MC1R; settings: EC50(MC1R)/EC50(MC4R)
T2 construct: host or cells: CHO-K1 (ECL assay)
T2 sequence (Q01726 whole entry): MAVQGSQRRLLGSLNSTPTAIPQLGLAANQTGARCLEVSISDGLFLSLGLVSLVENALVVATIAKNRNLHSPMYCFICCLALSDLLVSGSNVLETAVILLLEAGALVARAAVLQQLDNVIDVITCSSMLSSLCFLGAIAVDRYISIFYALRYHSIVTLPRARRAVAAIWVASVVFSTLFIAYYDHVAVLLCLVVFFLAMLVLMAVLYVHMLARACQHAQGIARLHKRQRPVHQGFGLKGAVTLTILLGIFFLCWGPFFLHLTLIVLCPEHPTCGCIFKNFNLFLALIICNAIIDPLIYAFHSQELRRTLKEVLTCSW
Procedure: as §1, §2, §3, §4

MC5R = biological target: T3, MC5R (Homo sapiens, UniProt P33032); test: cAMP assay (EC50), MC5R; settings: EC50(MC5R)/EC50(MC4R)
T3 construct: host or cells: CHO-K1 (ECL assay)
T3 sequence (P33032 whole entry): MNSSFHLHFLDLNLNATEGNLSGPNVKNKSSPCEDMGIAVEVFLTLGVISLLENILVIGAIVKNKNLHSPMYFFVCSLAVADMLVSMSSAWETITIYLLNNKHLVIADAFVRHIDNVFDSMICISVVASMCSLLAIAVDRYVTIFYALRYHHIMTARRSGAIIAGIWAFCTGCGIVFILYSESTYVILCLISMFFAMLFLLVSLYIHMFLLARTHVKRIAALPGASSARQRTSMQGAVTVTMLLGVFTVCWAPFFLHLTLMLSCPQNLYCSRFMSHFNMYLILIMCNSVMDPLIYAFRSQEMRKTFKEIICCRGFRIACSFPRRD
Procedure: Stimulation of intracellular cyclic AMP (cAMP) levels by the peptides is determined in a dose dependent manner by an electrochemiluminescence (ECL) assay (Meso Scale Discovery, Gaithersburg, MD, USA; referred to hereinafter as “MSD”). Briefly, the CHO-K1 cells stably expressing the hMC receptor subtypes are suspended in RMPI 1640® assay buffer (RMPI 1640 buffer contains 0.5 mM IBMX, and 0.2% protein cocktail (MSD blocker A)). About 7,000 cells/well of the transgenic CHO-K1 cells stably expressing hMC receptor subtypes 1, 3, 4 or 5 are dispensed in 384-well Multi-Array plates (MSD) containing integrated carbon electrodes and coated with anti-cAMP antibody. Increasing concentrations of the test compounds are added and the cells are incubated for approximately 40 minutes at 37° C. A cell lysis buffer (HEPES-buffered saline solution with MgCl2 and Triton X-100® at pH 7.3) containing 0.2% protein cocktail and 2.5 nM TAG™ ruthenium-labeled cAMP (MSD) is added and the cells are incubated for approximately 90 minutes at room temperature. At the end of the second incubation period, the read buffer (Tris-buffered solution containing an ECL co-reactant and Triton X-100 at pH 7.8) is added and the cAMP levels in the cell lysates are immediately determined by ECL detection with a Sector Imager 6000 Reader® (MSD). Data are analyzed using a computer-assisted non-linear regression analysis (XL fit; IDBS) and reported as either an EC50 value. […]
as §3, with “ED-cAMP. This active enzyme then converts a chemiluminescent substrate to generate an output signal that is recorded on a standard microplate reader.” for “ED-cAMP.”
as §4

SMILES	Ratios of EC50 values MC3/4 (MC3R)	Ratios of EC50 values MC1/4 (MC1R)	Ratios of EC50 values MC5/4 (MC5R)
CC(=O)N[C@@H](CCCNC(=N)N)C(=O)N[C@H]1CSSC[C@@H](C(N)=O)NC(=O)[C@H](Cc2c[nH]c3ccccc23)NC(=O)[C@H](CCCNC(=N)N)NC(=O)[C@@H](Cc2ccccc2)NC(=O)[C@H](Cc2cncn2C)NC(=O)[C@@H](C)NC1=O [Compound 5, Ac-Arg-cyclo[Cys-D-Ala-His(3-Me)-D-Phe-Arg-Trp-Cys]-NH2]	350	4	945
CC(=O)N[C@@H](CCCNC(=N)N)C(=O)N[C@H]1CSSC[C@@H](C(N)=O)NC(=O)[C@H](Cc2c[nH]c3ccccc23)NC(=O)[C@H](CCCNC(=N)N)NC(=O)[C@@H](Cc2ccccc2)NC(=O)[C@H](Cc2c[nH]cn2)NC(=O)[C@@H](CC(C)C)NC1=O [Compound 1, Ac-Arg-cyclo[Cys-D-Leu-His-D-Phe-Arg-Trp-Cys]-NH2]	1.13	0.68	130
CC[C@@H](C)[C@H]1NC(=O)[C@@H](NC(=O)[C@H](CCCNC(=N)N)NC(C)=O)CSSC[C@@H](C(N)=O)NC(=O)[C@H](Cc2c[nH]c3ccccc23)NC(=O)[C@H](CCCNC(=N)N)NC(=O)[C@@H](Cc2ccccc2)NC(=O)[C@H](Cc2c[nH]cn2)NC1=O [Compound 2, Ac-Arg-cyclo[Cys-D-Ile-His-D-Phe-Arg-Trp-Cys]-NH2]	0.96	0.69	420
CC(=O)N[C@@H](CCCNC(=N)N)C(=O)N[C@H]1CSSC[C@@H](C(N)=O)NC(=O)[C@H](Cc2c[nH]c3ccccc23)NC(=O)[C@H](CCCNC(=N)N)NC(=O)[C@@H](Cc2ccccc2)NC(=O)[C@H](Cc2c[nH]cn2)NC(=O)[C@@H](C(C)C)NC1=O [Compound 4, Ac-Arg-cyclo[Cys-D-Val-His-D-Phe-Arg-Trp-Cys]-NH2]	1.19	0.93	584
CC(=O)N[C@@H](CCC(=O)O)C(=O)N[C@H]1CSSC[C@@H](C(N)=O)NC(=O)[C@H](Cc2c[nH]c3ccccc23)NC(=O)[C@H](CCCNC(=N)N)NC(=O)[C@@H](Cc2ccccc2)NC(=O)[C@H](Cc2c[nH]cn2)NC(=O)[C@H](C)NC1=O [Compound 22, Ac-Glu-cyclo[Cys-Ala-His-D-Phe-Arg-Trp-Cys]-NH2] (Ac-ECAH[dF]RWC-NH2; disulfide 2-8)	>20	>3	>2563
CC(=O)N[C@@H](CCCNC(=N)N)C(=O)N[C@H]1CSSC[C@@H](C(N)=O)NC(=O)[C@H](Cc2c[nH]c3ccccc23)NC(=O)[C@H](CCCNC(=N)N)NC(=O)[C@@H](Cc2ccccc2)NC(=O)[C@H](Cc2c[nH]cn2)NC(=O)[C@@H](C(C)(C)C)NC1=O [Compound 3, Ac-Arg-cyclo[Cys-D-Tie-His-D-Phe-Arg-Trp-Cys]-NH2]	1	1	930

Other lines, results leading:

Ratios of EC50 values MC3/4 (MC3R)	Ratios of EC50 values MC1/4 (MC1R)	Ratios of EC50 values MC5/4 (MC5R)	SMILES
1.45	2.31	–	CC(=O)N[C@@H](CCCNC(=N)N)C(=O)N[C@H]1CSSC[C@@H](C(N)=O)NC(=O)[C@H](Cc2c[nH]c3ccccc23)NC(=O)[C@H](CCCNC(=N)N)NC(=O)[C@@H](Cc2ccccc2)NC(=O)[C@H](CCCNC(=N)N)NC(=O)[C@@H](C)NC1=O [Compound 10, Ac-Arg-cyclo[Cys-D-Ala-Arg-D-Phe-Arg-Trp-Cys]-NH2] (Ac-RC[dA]R[dF]RWC-NH2; disulfide 2-8)
30	90	530	CC(=O)N[C@@H](CCCNC(=N)N)C(=O)N[C@H]1CSSC[C@@H](C(N)=O)NC(=O)[C@H](Cc2c[nH]c3ccccc23)NC(=O)[C@H](CCCNC(=N)N)NC(=O)[C@@H](Cc2ccccc2)NC(=O)[C@H](CC(N)=O)NC(=O)[C@@H](C)NC1=O [Compound 9, Ac-Arg-cyclo[Cys-D-Ala-Asn-D-Phe-Arg-Trp-Cys]-NH2] (Ac-RC[dA]N[dF]RWC-NH2; disulfide 2-8)
>22.2	6.67	–	CC(=O)N[C@@H](CCCNC(=N)N)C(=O)N[C@H]1CSSC[C@@H](C(N)=O)NC(=O)[C@H](Cc2c[nH]c3ccccc23)NC(=O)[C@H](CCCNC(=N)N)NC(=O)[C@@H](Cc2ccccc2)NC(=O)[C@H](Cc2ccc(O)cc2)NC(=O)[C@@H](C)NC1=O [Compound 11, Ac-Arg-cyclo[Cys-D-Ala-Tyr-D-Phe-Arg-Trp-Cys]-NH2] (Ac-RC[dA]Y[dF]RWC-NH2; disulfide 2-8)
>400	7	12	CC(=O)N[C@@H](CCCNC(=N)N)C(=O)N[C@H]1CSSC[C@@H](C(N)=O)NC(=O)[C@H](Cc2c[nH]c3ccccc23)NC(=O)[C@H](CCCNC(=N)N)NC(=O)[C@@H](Cc2ccc(F)cc2)NC(=O)[C@@H]2CCCN2C(=O)[C@@H](C)NC1=O [Compound 14, Ac-Arg-cyclo[Cys-D-Ala-Pro-D-Phe(p-F)-Arg-Trp-Cys]-NH2] (Ac-RC[dA]P[dPhe(4-F)]RWC-NH2; disulfide 2-8)
3.8	15	161	CC(=O)N[C@@H](CCCNC(=N)N)C(=O)N[C@H]1CCSSC[C@@H](C(N)=O)NC(=O)[C@H](Cc2c[nH]c3ccccc23)NC(=O)[C@H](CCCNC(=N)N)NC(=O)[C@@H](Cc2ccccc2)NC(=O)[C@H](C)NC1=O [Compound 15, Ac-Arg-cyclo[hCys-Ala-D-Phe-Arg-Trp-Cys]-NH2] (Ac-R[hCys]A[dF]RWC-NH2; disulfide 2-7)
17	15	159	CC(=O)N[C@@H](CCCNC(=N)N)C(=O)N[C@H]1CCSSC(C)(C)[C@@H](C(N)=O)NC(=O)[C@H](Cc2c[nH]c3ccccc23)NC(=O)[C@H](CCCNC(=N)N)NC(=O)[C@@H](Cc2ccccc2)NC(=O)[C@@H](C)NC1=O [Compound 17, Ac-Arg-cyclo[hCys-D-Ala-D-Phe-Arg-Trp-Pen]-NH2] (Ac-R[hCys][dA][dF]RW[Pen]-NH2; disulfide 2-7)
